Details of series [1]: method as in PMID 354839. The following applies: chlorthalidone dose 2- to 4-fold over the currently recommended level; cited from earlier work.
A further series relates to hNCC(V229M). In words: 125I- uptake assay, hNCC(V229M) variant. Format: cell-based, human. The following applies: V229M polymorphism. As for the experimental part: (§1) HEK293S cell lines, cultured in 293 Freestyle medium (Life Technologies; plus 10% fetal bovine serum), stably expressing hNCC and its variants were generated following published protocols. Cells were transfected using Lipofectamine 3000 (Invitrogen) with a pSBbi-RP-based plasmid containing hNCC or its variants and the SB100X vector. Puromycin (2 μg/mL; Gemini Bio-Products) was used for selection of stable cell lines.
To prepare for the uptake experiment, cells were plated at 0.5 × 10^6 cells/well in 24-well plates one day in advance. To activate NCC, cells were treated with a chloride-free hypotonic solution composed of 67.5 mM sodium-, 2.5 mM potassium-, 0.25 mM magnesium-, and 0.25 mM calcium-gluconate, as well as 7.5 mM HEPES pH 7.4 (buffered using Tris) at 37 °C for 10 min[72]. After the activation step, the experiments were carried out at room temperature. Ten minutes before the start of ^125I^− uptake, 70 μM Bumetanide (Thermo Scientific Chemicals) and 100 μM 4,4′-diisothiocyanatostilbene-2,2′-disulfonic acid (DIDS; Sigma) were added to suppress background iodide uptake activity. Indicated thiazide diuretics were also added to the indicated concentrations 10 min before the start of ^125I^− uptake. […] Cells lysed using 1% sodium dodecyl sulfate (SDS) were analyzed by scintillation counting. […]

The target of a further series is T1, hNCC(H234N) (Homo sapiens, UniProt P55017, H234N).
T1 construct: expressed in transfected cells
T1 sequence (P55017 1-1021 H234N): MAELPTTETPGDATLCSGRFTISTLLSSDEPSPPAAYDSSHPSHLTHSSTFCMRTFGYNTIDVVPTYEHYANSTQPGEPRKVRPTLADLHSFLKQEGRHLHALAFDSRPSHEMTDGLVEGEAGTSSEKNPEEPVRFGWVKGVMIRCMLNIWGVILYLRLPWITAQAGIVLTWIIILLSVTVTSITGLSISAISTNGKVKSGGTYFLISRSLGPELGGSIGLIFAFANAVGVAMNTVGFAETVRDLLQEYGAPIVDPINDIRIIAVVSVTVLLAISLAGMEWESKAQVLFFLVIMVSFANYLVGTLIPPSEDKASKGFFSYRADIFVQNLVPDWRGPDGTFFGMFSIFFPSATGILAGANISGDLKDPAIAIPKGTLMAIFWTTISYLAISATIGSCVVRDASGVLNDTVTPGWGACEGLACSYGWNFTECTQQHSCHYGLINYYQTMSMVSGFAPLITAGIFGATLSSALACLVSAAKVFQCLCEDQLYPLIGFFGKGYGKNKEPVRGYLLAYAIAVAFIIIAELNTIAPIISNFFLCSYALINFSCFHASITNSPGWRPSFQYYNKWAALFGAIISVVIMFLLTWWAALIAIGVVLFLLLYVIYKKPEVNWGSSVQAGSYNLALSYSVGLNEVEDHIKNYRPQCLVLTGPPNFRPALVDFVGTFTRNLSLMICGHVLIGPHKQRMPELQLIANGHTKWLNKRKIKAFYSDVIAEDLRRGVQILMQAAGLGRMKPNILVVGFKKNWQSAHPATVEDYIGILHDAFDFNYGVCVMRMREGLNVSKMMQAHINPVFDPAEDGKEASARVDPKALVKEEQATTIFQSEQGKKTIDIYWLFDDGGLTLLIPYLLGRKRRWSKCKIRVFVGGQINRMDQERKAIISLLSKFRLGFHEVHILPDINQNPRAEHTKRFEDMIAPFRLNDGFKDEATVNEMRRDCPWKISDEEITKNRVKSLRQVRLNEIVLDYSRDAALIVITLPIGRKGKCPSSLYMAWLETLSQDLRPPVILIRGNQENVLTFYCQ
The series is described as follows: 125I- uptake assay, hNCC(H234N) variant. It is filed as cell-based. Particulars: 100 μM polythiazide. How it is done:
as §1
To prepare for the uptake experiment, cells were plated at 0.5 × 10^6 cells/well in 24-well plates one day in advance. To activate NCC, cells were treated with a chloride-free hypotonic solution composed of 67.5 mM sodium-, 2.5 mM potassium-, 0.25 mM magnesium-, and 0.25 mM calcium-gluconate, as well as 7.5 mM HEPES pH 7.4 (buffered using Tris) at 37 °C for 10 min[72]. After the activation step, the experiments were carried out at room temperature. Ten minutes before the start of ^125I^− uptake, 70 μM Bumetanide (Thermo Scientific Chemicals) and 100 μM 4,4′-diisothiocyanatostilbene-2,2′-disulfonic acid (DIDS; Sigma) were added to suppress background iodide uptake activity. Indicated thiazide diuretics were also added to the indicated concentrations 10 min before the start of ^125I^− uptake. […] Cells lysed using 1% sodium dodecyl sulfate (SDS) were analyzed by scintillation counting.

“Also recorded” adds a separate entry of the source.

In the case of `NS(=O)(=O)c1cc(C2(O)NC(=O)c3ccccc32)ccc1Cl` (stereo not drawn) [chlorthalidone], in series [1], the “serum glucose and uric acid” value is “elevated levels of serum glucose and uric acid”.

On to `CN1C(CSCC(F)(F)F)Nc2cc(Cl)c(S(N)(=O)=O)cc2S1(=O)=O` (stereo not drawn) [polythiazide], for which the “fold reduction of sensitivity relative to hNCC(WT)” value with hNCC(V229M) is given as ~ 5 fold. For the same molecule, the “inhibition of transport activity” value against hNCC(H234N) is recorded as “fully inhibited; also recorded: completely inhibited”.

Values taken from publication PMC12365235, “Molecular mechanisms of thiazide-like diuretics-mediated inhibition of the human Na-Cl cotransporter” (Nature Communications, 2025).
